Literature values, collected in US7622592B2, “Carbonylamino-benzimidazole derivatives as androgen receptor modulators” (Merck & Co., Inc., priority 2002, dated 2009).

Settings: after 7 years of treatment

## NCCCC(O)(P(=O)(O)O)P(=O)(O)O [alendronate, 4-amino-1-hydroxybutylidene-1,1-bisphosphonic acid]
  increase in spinal BMD: 11
